Assay results published in ChEMBL document CHEMBL1781944, “The discovery of novel benzofuran-2-carboxylic acids as potent Pim-1 inhibitors” (Bioorg Med Chem Lett, 2011).
Values after ≈ are worked out from the molar mass of the structure shown. Active and inactive are the calls of the source. The calls are words filed in the database; no cut-off is given here.

How the values were obtained:
[1] = biological target: Serine/threonine-protein kinase pim-2 (Homo sapiens, UniProt Q9P1W9)
[2] = biological target: T1, Serine/threonine-protein kinase pim-1 (Homo sapiens, UniProt P11309)
Target sequence in this assay (P11309 whole entry): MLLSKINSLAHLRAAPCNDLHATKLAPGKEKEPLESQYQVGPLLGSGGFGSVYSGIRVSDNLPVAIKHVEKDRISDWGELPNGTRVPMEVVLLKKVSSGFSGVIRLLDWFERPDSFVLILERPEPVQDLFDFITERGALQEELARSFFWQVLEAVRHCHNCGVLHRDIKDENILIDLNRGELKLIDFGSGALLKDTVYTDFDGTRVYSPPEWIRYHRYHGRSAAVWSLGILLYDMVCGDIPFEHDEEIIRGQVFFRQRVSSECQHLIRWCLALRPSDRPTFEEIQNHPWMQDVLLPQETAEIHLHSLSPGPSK

[3] = in vitro; details: human, liver microsomes
[4] = Solubility of the compound in phosphate buffered saline buffer at pH 7.4; format: physicochemical
[5] = biological target: Cytochrome P450 2C9 (Homo sapiens, UniProt P11712); assay: Inhibition of CYP2C9 in human liver microsomes; format: ADME, Microsome
[6] = biological target: Cytochrome P450 3A4 (Homo sapiens, UniProt P08684); assay: Inhibition of CYP3A4 in human liver microsomes; format: ADME, Microsome
[7] = biological target: Cytochrome P450 2D6 (Homo sapiens, UniProt P10635); assay: Inhibition of CYP2D6 in human liver microsomes; format: ADME, Microsome
[8] = Intrinsic clearance in rat liver microsomes; format: ADME, Microsome
[9] = biological target: Cytochrome P450 2C19 (Homo sapiens, UniProt P33261); assay: Inhibition of CYP2C19 in human liver microsomes; format: ADME, Microsome
[10] = biological target: T2, Cytochrome P450 1A2 (Homo sapiens, UniProt P05177); assay: Inhibition of CYP1A2 in human liver microsomes; format: ADME, Microsome
T2 sequence (P05177 whole entry): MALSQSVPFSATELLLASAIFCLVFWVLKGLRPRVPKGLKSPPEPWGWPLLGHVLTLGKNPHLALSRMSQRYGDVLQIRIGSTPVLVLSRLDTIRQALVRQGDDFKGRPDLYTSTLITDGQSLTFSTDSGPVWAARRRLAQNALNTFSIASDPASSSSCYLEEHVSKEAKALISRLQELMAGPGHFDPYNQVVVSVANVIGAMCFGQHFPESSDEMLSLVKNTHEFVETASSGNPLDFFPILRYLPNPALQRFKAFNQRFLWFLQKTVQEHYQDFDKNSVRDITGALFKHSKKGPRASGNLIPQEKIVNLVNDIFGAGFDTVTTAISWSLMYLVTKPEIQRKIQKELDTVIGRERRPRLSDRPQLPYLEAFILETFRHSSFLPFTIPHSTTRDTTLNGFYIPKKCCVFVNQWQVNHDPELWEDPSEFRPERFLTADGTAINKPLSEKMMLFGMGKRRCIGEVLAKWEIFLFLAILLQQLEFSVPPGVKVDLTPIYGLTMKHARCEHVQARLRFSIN

[11] = biological target: T1, Serine/threonine-protein kinase pim-1; details: 25 uM
Target sequence in this assay (P11309 whole entry, looked up): as the sequence (P11309 whole entry) above

Sequence of Serine/threonine-protein kinase pim-2 (Q9P1W9 whole entry): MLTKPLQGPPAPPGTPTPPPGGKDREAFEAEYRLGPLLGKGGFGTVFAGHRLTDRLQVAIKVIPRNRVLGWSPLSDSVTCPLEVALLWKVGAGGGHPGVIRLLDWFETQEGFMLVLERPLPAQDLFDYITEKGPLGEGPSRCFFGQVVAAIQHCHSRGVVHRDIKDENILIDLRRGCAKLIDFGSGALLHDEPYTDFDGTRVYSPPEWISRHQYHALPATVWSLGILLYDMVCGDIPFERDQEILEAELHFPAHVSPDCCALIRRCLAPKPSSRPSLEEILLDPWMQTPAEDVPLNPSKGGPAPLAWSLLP
Sequence of Cytochrome P450 2C19 (P33261 whole entry): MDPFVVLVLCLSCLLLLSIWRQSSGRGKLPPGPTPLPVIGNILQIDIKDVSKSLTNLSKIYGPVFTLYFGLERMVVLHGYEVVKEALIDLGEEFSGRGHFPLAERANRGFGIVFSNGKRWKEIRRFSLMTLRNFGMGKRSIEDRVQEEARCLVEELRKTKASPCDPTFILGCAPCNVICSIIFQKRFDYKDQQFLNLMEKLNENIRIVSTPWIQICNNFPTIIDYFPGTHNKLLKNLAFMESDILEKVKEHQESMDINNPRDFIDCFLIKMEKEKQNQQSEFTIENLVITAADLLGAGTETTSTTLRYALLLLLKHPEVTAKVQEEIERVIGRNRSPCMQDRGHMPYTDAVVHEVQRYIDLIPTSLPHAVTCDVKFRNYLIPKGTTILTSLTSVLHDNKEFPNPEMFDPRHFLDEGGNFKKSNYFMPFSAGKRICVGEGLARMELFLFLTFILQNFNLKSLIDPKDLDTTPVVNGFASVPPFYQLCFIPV
Sequence of Cytochrome P450 2C9 (P11712 whole entry): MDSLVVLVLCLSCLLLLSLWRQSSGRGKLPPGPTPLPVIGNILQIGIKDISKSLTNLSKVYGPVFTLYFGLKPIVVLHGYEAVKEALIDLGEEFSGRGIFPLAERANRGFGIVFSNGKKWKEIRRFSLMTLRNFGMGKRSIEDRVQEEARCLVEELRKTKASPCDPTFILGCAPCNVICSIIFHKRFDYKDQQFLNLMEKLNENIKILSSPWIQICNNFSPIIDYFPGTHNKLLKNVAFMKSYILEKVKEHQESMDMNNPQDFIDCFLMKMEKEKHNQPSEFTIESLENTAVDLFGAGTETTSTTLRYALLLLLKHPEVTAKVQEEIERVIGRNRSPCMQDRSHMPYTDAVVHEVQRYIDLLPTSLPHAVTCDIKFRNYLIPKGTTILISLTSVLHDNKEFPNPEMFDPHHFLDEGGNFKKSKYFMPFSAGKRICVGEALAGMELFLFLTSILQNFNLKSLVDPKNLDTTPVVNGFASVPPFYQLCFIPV
Sequence of Cytochrome P450 3A4 (P08684 whole entry): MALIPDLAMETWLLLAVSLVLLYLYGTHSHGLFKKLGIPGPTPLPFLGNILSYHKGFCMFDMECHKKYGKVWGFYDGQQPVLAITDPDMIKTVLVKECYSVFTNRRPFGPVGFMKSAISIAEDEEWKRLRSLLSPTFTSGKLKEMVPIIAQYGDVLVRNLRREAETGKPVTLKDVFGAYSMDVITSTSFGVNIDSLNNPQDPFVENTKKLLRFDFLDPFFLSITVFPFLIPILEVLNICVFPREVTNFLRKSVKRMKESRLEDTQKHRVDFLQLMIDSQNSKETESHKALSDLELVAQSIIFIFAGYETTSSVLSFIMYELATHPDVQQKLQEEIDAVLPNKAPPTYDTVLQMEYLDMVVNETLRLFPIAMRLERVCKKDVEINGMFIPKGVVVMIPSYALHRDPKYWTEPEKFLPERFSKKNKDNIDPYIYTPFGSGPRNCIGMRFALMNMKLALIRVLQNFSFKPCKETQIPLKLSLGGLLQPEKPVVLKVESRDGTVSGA
Sequence of Cytochrome P450 2D6 (P10635 whole entry): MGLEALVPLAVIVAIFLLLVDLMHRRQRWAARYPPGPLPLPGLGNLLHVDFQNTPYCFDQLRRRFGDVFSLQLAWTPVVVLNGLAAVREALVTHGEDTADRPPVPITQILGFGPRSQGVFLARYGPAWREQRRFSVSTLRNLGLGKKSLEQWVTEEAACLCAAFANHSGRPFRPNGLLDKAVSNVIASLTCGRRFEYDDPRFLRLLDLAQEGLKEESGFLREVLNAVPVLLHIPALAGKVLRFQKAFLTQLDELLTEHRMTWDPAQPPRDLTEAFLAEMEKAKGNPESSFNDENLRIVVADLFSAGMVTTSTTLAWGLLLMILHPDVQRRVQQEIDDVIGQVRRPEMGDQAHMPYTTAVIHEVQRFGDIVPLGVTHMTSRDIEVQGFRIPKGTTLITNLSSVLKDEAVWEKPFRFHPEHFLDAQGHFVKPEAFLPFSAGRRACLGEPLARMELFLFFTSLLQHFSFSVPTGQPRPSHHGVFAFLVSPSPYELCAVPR

| SMILES | IC50 [1] [nM] | IC50 [2] [nM] | other results |
| --- | --- | --- | --- |
| O=C(O)c1cc2cc(Br)cc(NC(=O)C3CCNCC3)c2o1 | 260 | 150 |  |
| N[C@H]1CC[C@@H](Nc2cncc(-c3ccc4oc(C(=O)O)cc4c3)n2)CC1 | 110 | 200 |  |
| NC[C@H]1CC[C@H](Nc2cncc(-c3ccc4oc(C(=O)O)cc4c3)n2)CC1 | 21 | 53 |  |
| O=C(O)c1cc2cc(-c3cnccn3)ccc2o1 | 11900 | 7400 |  |
| N[C@H]1CC[C@H](Nc2cc(Br)cc3cc(C(=O)O)oc23)CC1 | 66 |  | microsomal CLint [3]: 11.2 µL/min/mg; solubility [4]: > 58 µg/mL; IC50 [5]: > 10000 nM; IC50 [6]: > 10000 nM; IC50 [7]: > 10000 nM; microsomal CLint [8]: 8.1 µL/min/mg; IC50 [9]: > 10000 nM; IC50 [10]: > 10000 nM |
| O=C(O)c1cc2cc(Br)cc(OCC3CCCNC3)c2o1 (configuration not stated) | 350 | 71 |  |
| N[C@H]1CC[C@@H](Nc2cc(Br)cc3cc(C(=O)O)oc23)CC1 | 4 |  | microsomal CLint [3]: 10.2 µL/min/mg; solubility [4]: 20.1 µg/mL (≈ 56.9 µM); IC50 [5]: > 10000 nM; IC50 [6]: > 10000 nM; IC50 [7]: > 10000 nM; microsomal CLint [8]: 10 µL/min/mg; IC50 [9]: > 10000 nM; IC50 [10]: > 10000 nM |
| O=C(O)c1cc2ccccc2o1 |  | 119000 |  |
| O=C(O)c1cc2cc(Br)cc(C(=O)NC3CCNCC3)c2o1 | 7000 | 980 |  |
| O=C(O)c1cc2cc(-c3cncc(NCC4CCNCC4)n3)ccc2o1 | 160 | 380 |  |
| N[C@H]1CC[C@H](Nc2cncc(-c3ccc4oc(C(=O)O)cc4c3)n2)CC1 | 54 |  |  |
| O=C(O)c1cc2cc(-c3cnn(C4CCNCC4)c3)ccc2o1 | 5800 | 6000 |  |
| O=C(O)c1cc2cc(Br)cc(NCCC3CCNCC3)c2o1 | 540 | 40 |  |
| O=C(O)c1cc2cc(Br)cc(N[C@H]3CC[C@H](O)CC3)c2o1 | 6100 | 2400 |  |
| O=C(O)c1cc2cc(Br)cc(C(=O)NCC3CCNCC3)c2o1 | 1300 | 2700 |  |
| O=C(O)c1cc2cc(Br)cc(OCc3ccncc3)c2o1 | 12500 | 4900 |  |

| SMILES | IC50 [1] [nM] | IC50 [2] [nM] | other results |
| --- | --- | --- | --- |
| O=C(O)c1cc2cc(OC(F)(F)F)ccc2o1 |  | 6100 |  |
| O=C(O)c1cc2cc(Br)cc(OCCc3ccncc3)c2o1 | 21100 | 4500 |  |
| O=C(O)c1cc2cc(C(F)(F)F)ccc2o1 | 13500 | 5300 |  |
| O=C(O)c1cc2cc(-c3cncc(NC4CNC4)n3)ccc2o1 | 100 | 450 |  |
| O=C(O)c1cc2cc(-c3cncc(NC4CCNCC4)n3)ccc2o1 | 150 | 210 |  |
| O=C(O)c1cc2cc(Br)cc(OCCC3CCNCC3)c2o1 | 350 | 51 |  |
| O=C(O)c1cc2cc(-c3cccnc3)ccc2o1 | 7100 | 7800 |  |
| NCCCCNc1ccnc(-c2ccc3oc(C(=O)O)cc3c2)n1 | 1200 | 1900 |  |
| O=C(O)c1cc2cc(Br)cc(OCC(=O)N3CCNCC3)c2o1 | 1300 | 220 |  |
| COc1cc(Br)cc2cc(C#N)oc12 |  |  | inhibition [11]: inactive |
| Cn1cc(-c2ccc3oc(C(=O)O)cc3c2)cn1 | 2900 | 5400 |  |
| O=C(O)c1cc2cc(Br)cc(OCC3CCNCC3)c2o1 | 250 | 60 |  |
| NCCCCNc1nccc(-c2ccc3oc(C(=O)O)cc3c2)n1 | 590 | 460 |  |
| O=C(O)c1cc2cc(Br)cc(NCC3CCNCC3)c2o1 | 190 | 20 | microsomal CLint [3]: 9.9 µL/min/mg; solubility [4]: > 58 µg/mL; IC50 [5]: > 10000 nM; IC50 [6]: > 10000 nM; IC50 [7]: > 10000 nM; microsomal CLint [8]: 14.1 µL/min/mg; IC50 [9]: > 10000 nM; IC50 [10]: > 10000 nM |
| O=C(CC1CCNCC1)Nc1cc(Br)cc2cc(C(=O)O)oc12 | 340 | 55 |  |
| O=C(O)c1cc2cc(Br)cc(N[C@H]3CC[C@@H](O)CC3)c2o1 | 6800 | 2300 |  |
